Patent US20250296953A1, “3,4-THIAZOLO-STEROIDS AND METHODS OF MAKING AND USING THE SAME” (Arkansas State University - Jonesboro, priority 2018, published 2025)
Like-named read-outs stand apart in the source and are kept apart here.

System: 60 different human tumor cell lines
Details: for CC50: read-out: LC50
[1] = OVCAR-5 (Ovarian Cancer), five dose
[2] = OVCAR-8 (Ovarian Cancer), five dose
[3] = PC-3 (Prostate Cancer), five dose
[4] = RXF 393 (Renal Cancer), five dose
[5] = SK-MEL-28 (Melanoma), five dose
[6] = SK-OV-3 (Ovarian Cancer), five dose
[7] = SN12C (Renal Cancer), five dose
[8] = SW-620 (Colon Cancer), five dose
[9] = T-47D (Breast Cancer), five dose
[10] = TK-10 (Renal Cancer), five dose
[11] = UO-31 (Renal Cancer), five dose

**Q.** Which TGI [1] does the source give for “(1S,2R,13R,14S,18S)-7-(3-fluoroanilino)-2,18-dimethyl-6-thia-8-azapentacyclo[11.7.0.02,10.05,9.014,18]icosa-5(9),7,10-trien-17-one [IIa.8]” here?
**A.** Its TGI is 1.80E−5.

**Q.** And the GI50 [2]?
**A.** Its GI50 is 2790 nM.

**Q.** And the TGI [2]?
**A.** The TGI was 7.98E−6.

**Q.** What about the GI50 [3] of the same substance?
**A.** Its GI50 is 1880 nM.

**Q.** And the TGI [3]?
**A.** Its TGI is 3.87E−6.

**Q.** What about the GI50 [4] of the same substance?
**A.** Its GI50 is 1450 nM.

**Q.** What about the TGI [4] of the same substance?
**A.** Its TGI is 3.25E−6.

**Q.** And the GI50 (SF-268 (CNS Cancer), five dose)?
**A.** The GI50 was 3090 nM.

**Q.** What about the TGI (SF-268 (CNS Cancer), five dose) of the same substance?
**A.** Its TGI is 1.11E−5.

**Q.** What about the GI50 (SK-MEL-2 (Melanoma), five dose) of the same substance?
**A.** Its GI50 is 1860 nM.

**Q.** What about the TGI (SK-MEL-2 (Melanoma), five dose) of the same substance?
**A.** The TGI was 5.19E−5.

**Q.** What about the GI50 (SK-MEL-5 (Melanoma), five dose) of the same substance?
**A.** Its GI50 is 2020 nM.

**Q.** And the TGI (SK-MEL-5 (Melanoma), five dose)?
**A.** Its TGI is 4.32E−6.

**Q.** What about the GI50 [5] of the same substance?
**A.** The GI50 was 1520 nM.

**Q.** And the TGI [5]?
**A.** The TGI was 4.27E−6.

**Q.** What about the GI50 [6] of the same substance?
**A.** Its GI50 is 2330 nM.

**Q.** What about the TGI [6] of the same substance?
**A.** The TGI was 6.10E−6.

**Q.** And the GI50 [7]?
**A.** The GI50 was 2360 nM.

**Q.** What about the TGI [7] of the same substance?
**A.** The TGI was 6.02E−6.

**Q.** And the GI50 (SNB-19 (CNS Cancer), five dose)?
**A.** The GI50 was 2330 nM.

**Q.** What about the TGI (SNB-19 (CNS Cancer), five dose) of the same substance?
**A.** The TGI was 5.69E−6.

**Q.** What about the GI50 (SNB-75 (CNS Cancer), five dose) of the same substance?
**A.** Its GI50 is 1520 nM.

**Q.** And the TGI (SNB-75 (CNS Cancer), five dose)?
**A.** The TGI was 4.94E−6.

**Q.** And the GI50 [8]?
**A.** Its GI50 is 2330 nM.

**Q.** And the TGI [8]?
**A.** Its TGI is 4.99E−6.

**Q.** What about the GI50 [9] of the same substance?
**A.** The GI50 was 2220 nM.

**Q.** And the TGI [9]?
**A.** The TGI was 6.95E−6.

**Q.** What about the GI50 [10] of the same substance?
**A.** The GI50 was 1970 nM.

**Q.** What about the TGI [10] of the same substance?
**A.** The TGI was 4.15E−6.

**Q.** And the GI50 (U251 (CNS Cancer), five dose)?
**A.** The GI50 was 1590 nM.

**Q.** And the TGI (U251 (CNS Cancer), five dose)?
**A.** Its TGI is 3.68E−6.

**Q.** What about the GI50 (UACC-62 (Melanoma), five dose) of the same substance?
**A.** Its GI50 is 1540 nM.

**Q.** What about the TGI (UACC-62 (Melanoma), five dose) of the same substance?
**A.** The TGI was 3.12E−6.

**Q.** And the GI50 (UACC-257 (Melanoma), five dose)?
**A.** The GI50 was 5470 nM.

**Q.** And the TGI (UACC-257 (Melanoma), five dose)?
**A.** Its TGI is 6.45E−5.

**Q.** And the GI50 [11]?
**A.** The GI50 was 1670 nM.

**Q.** And the TGI [11]?
**A.** Its TGI is 3.59E−6.

**Q.** And the GI50 (four of six central nervous system (CNS) cell lines)?
**A.** Its GI50 is less than 2000 nM.

**Q.** And the CC50 (786-0 (Renal Cancer), five dose)?
**A.** The CC50 was 5.61 µM.

**Q.** What about the CC50 (A498 (Renal Cancer), five dose) of the same substance?
**A.** The CC50 was greater than 100 µM.

**Q.** And the CC50 (A549/ATCC (Non-small Cell Lung Cancer), five dose)?
**A.** Its CC50 is greater than 100 µM.

**Q.** And the CC50 (ACHN (Renal Cancer), five dose)?
**A.** Its CC50 is 5.92 µM.

**Q.** What about the CC50 (BT-549 (Breast Cancer), five dose) of the same substance?
**A.** Its CC50 is 8.49 µM.

**Q.** And the CC50 (CAKI-1 (Renal Cancer), five dose)?
**A.** The CC50 was 38.1 µM.

**Q.** And the CC50 (CCRF-CEM (Leukemia), five dose)?
**A.** Its CC50 is greater than 100 µM.

**Q.** And the CC50 (COLO 205 (Colon Cancer), five dose)?
**A.** Its CC50 is 24.4 µM.

**Q.** What about the CC50 (DU-145 (Prostate Cancer), five dose) of the same substance?
**A.** The CC50 was 27.4 µM.

**Q.** What about the CC50 (EKVX (Non-small Cell Lung Cancer), five dose) of the same substance?
**A.** Its CC50 is greater than 100 µM.

**Q.** What about the CC50 (HCC-2998 (Colon Cancer), five dose) of the same substance?
**A.** The CC50 was 88 µM.

**Q.** What about the CC50 (HCT-15 (Colon Cancer), five dose) of the same substance?
**A.** Its CC50 is 14.7 µM.

**Q.** What about the CC50 (HCT-116 (Colon Cancer), five dose) of the same substance?
**A.** The CC50 was 6.58 µM.

**Q.** And the CC50 (HL-60(TB) (Leukemia), five dose)?
**A.** The CC50 was greater than 100 µM.

**Q.** And the CC50 (HOP-62 (Non-small Cell Lung Cancer), five dose)?
**A.** The CC50 was 24.5 µM.

**Q.** What about the CC50 (HOP-92 (Non-small Cell Lung Cancer), five dose) of the same substance?
**A.** The CC50 was 7.73 µM.

**Q.** And the CC50 (HT29 (Colon Cancer), five dose)?
**A.** The CC50 was 8.28 µM.

**Q.** And the CC50 (IGROV1 (Ovarian Cancer), five dose)?
**A.** The CC50 was 7.76 µM.

**Q.** And the CC50 (K-562 (Leukemia), five dose)?
**A.** Its CC50 is greater than 100 µM.

**Q.** What about the CC50 (KM12 (Colon Cancer), five dose) of the same substance?
**A.** The CC50 was 79.2 µM.

**Q.** What about the CC50 (LOX IMVI (Melanoma), five dose) of the same substance?
**A.** Its CC50 is 6.16 µM.

**Q.** What about the CC50 (M14 (Melanoma), five dose) of the same substance?
**A.** Its CC50 is 81.4 µM.

**Q.** And the CC50 (MALME-3M (Melanoma), five dose)?
**A.** The CC50 was 26.7 µM.

**Q.** What about the CC50 (MCF7 (Breast Cancer), five dose) of the same substance?
**A.** The CC50 was 7.87 µM.

**Q.** What about the CC50 (MDA-MB-231/ATCC (Breast Cancer), five dose) of the same substance?
**A.** The CC50 was 9.99 µM.

**Q.** What about the CC50 (MDA-MB-435 (Melanoma), five dose) of the same substance?
**A.** The CC50 was greater than 100 µM.

**Q.** And the CC50 (MOLT-4 (Leukemia), five dose)?
**A.** The CC50 was greater than 100 µM.

**Q.** What about the CC50 (NCI-H23 (Non-small Cell Lung Cancer), five dose) of the same substance?
**A.** The CC50 was 77.7 µM.

**Q.** And the CC50 (NCI-H226 (Non-small Cell Lung Cancer), five dose)?
**A.** The CC50 was 81.5 µM.

**Q.** What about the CC50 (NCI-H460 (Non-small Cell Lung Cancer), five dose) of the same substance?
**A.** The CC50 was greater than 100 µM.

**Q.** What about the CC50 (NCI-H522 (Non-small Cell Lung Cancer), five dose) of the same substance?
**A.** The CC50 was 5.75 µM.

**Q.** And the CC50 (NCI/ADR-RES (Ovarian Cancer), five dose)?
**A.** Its CC50 is greater than 100 µM.

**Q.** And the CC50 (OVCAR-3 (Ovarian Cancer), five dose)?
**A.** Its CC50 is 6.34 µM.

**Q.** And the CC50 (OVCAR-4 (Ovarian Cancer), five dose)?
**A.** Its CC50 is greater than 100 µM.

**Q.** What about the CC50 [1] of the same substance?
**A.** Its CC50 is greater than 100 µM.

**Q.** What about the CC50 [2] of the same substance?
**A.** The CC50 was 68.7 µM.

**Q.** What about the CC50 [3] of the same substance?
**A.** Its CC50 is 7.94 µM.

**Q.** What about the CC50 [4] of the same substance?
**A.** Its CC50 is 7.31 µM.

**Q.** What about the CC50 (SF-268 (CNS Cancer), five dose) of the same substance?
**A.** Its CC50 is greater than 100 µM.

**Q.** And the CC50 (SK-MEL-2 (Melanoma), five dose)?
**A.** Its CC50 is 26.7 µM.

**Q.** And the CC50 (SK-MEL-5 (Melanoma), five dose)?
**A.** The CC50 was 9.24 µM.

**Q.** What about the CC50 [6] of the same substance?
**A.** The CC50 was greater than 100 µM.

**Q.** And the CC50 [7]?
**A.** Its CC50 is 36 µM.

**Q.** And the CC50 (SNB-19 (CNS Cancer), five dose)?
**A.** The CC50 was 22.7 µM.

**Q.** And the CC50 (SNB-75 (CNS Cancer), five dose)?
**A.** The CC50 was greater than 100 µM.

**Q.** What about the CC50 [8] of the same substance?
**A.** Its CC50 is greater than 100 µM.

**Q.** What about the CC50 [9] of the same substance?
**A.** Its CC50 is greater than 100 µM.

**Q.** What about the CC50 [10] of the same substance?
**A.** The CC50 was 8.72 µM.

**Q.** And the CC50 (U251 (CNS Cancer), five dose)?
**A.** Its CC50 is 8.51 µM.

**Q.** What about the CC50 (UACC-62 (Melanoma), five dose) of the same substance?
**A.** The CC50 was 6.31 µM.

**Q.** What about the CC50 (UACC-257 (Melanoma), five dose) of the same substance?
**A.** The CC50 was greater than 100 µM.

**Q.** What about the CC50 [11] of the same substance?
**A.** Its CC50 is 7.69 µM.
